Assay results as given in patent US20180265515A1 (Genentech, Inc., priority 2015, published 2018).

Experiments:
[1] = target: T1, isolated recombinant JAK2 kinase domain (Homo sapiens, UniProt O60674); assay: JAK2 enzyme assay (Caliper LabChip, Ki); assay type: biochemical; conditions: 25 μM ATP
T1 construct: The activity of the isolated recombinant JAK1 and JAK2 kinase domain was measured
Summary of the method: (§1)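 Values are Ki estimates derived with the Morrison tight-binding equation modified for competition with ATP. Activity of the recombinant kinase domains was measured as peptide phosphorylation on a Caliper LabChip after a 30-minute, 22° C reaction terminated by EDTA.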

[2] = target: T2, isolated recombinant JAK1 kinase domain (Homo sapiens, UniProt P23458); assay: JAK1 enzyme assay (Caliper LabChip, Ki); assay type: biochemical; conditions: recombinant JAK1 kinase domain, 25 μM ATP
T2 construct: The activity of the isolated recombinant JAK1 and JAK2 kinase domain was measured
Summary of the method: as §1

[3] = tested on: JAK1-dependent STAT6 phosphorylation downstream of IL-13 stimulation in BEAS-2B human bronchial epithelial cells; assay: JAK1 pathway assay in BEAS-2B cells (IL-13 stimulated STAT6 phosphorylation, MSD); assay type: cell-based; conditions: read-out: P-STAT6 BEAS2B + IL13 IC50
Summary of the method: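 BEAS-2B human bronchial epithelial cells, plated the day before in complete growth medium, were preincubated with compound for 1 hr at 37° C (0.2% DMSO final), then stimulated with IL-13 at its EC90 for 15 min. STAT6 phosphorylation in lysates was read by MSD; EC50 was taken as 50% inhibition versus DMSO control.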

T2 sequence (P23458 875-1153 limits assumed): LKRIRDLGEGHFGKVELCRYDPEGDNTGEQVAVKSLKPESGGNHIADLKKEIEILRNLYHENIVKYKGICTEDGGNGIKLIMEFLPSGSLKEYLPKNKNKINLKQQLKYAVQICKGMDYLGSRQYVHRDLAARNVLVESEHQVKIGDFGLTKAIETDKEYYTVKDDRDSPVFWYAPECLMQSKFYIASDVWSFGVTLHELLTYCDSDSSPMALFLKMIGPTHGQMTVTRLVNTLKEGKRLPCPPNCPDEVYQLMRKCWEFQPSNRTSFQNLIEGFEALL
T1 sequence (O60674 849-1124 limits assumed): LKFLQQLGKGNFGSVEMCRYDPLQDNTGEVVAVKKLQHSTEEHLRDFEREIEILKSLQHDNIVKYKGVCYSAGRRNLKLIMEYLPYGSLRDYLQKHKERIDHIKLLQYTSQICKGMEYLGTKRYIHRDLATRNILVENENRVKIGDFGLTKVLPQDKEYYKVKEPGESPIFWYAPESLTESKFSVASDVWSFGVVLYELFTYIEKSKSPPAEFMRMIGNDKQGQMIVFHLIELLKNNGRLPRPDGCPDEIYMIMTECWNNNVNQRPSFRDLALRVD

Compound: O=C(Nc1cn(CC(=O)N2CCC(N3CCOCC3)CC2)nc1-c1cc(SC2COC2)ccc1OC(F)F)c1cnn2cccnc12 [Example 182, N-[3-[2-(difluoromethoxy)-5-(oxetan-3-ylsulfanyl)phenyl]-1-[2-(4-morpholino-1-piperidyl)-2-oxo-ethyl]pyrazol-4-yl]pyrazolo[1,5-a]pyrimidine-3-carboxamide]
- Ki [1]: 1.9 nM
- Ki [2]: 0.92 nM
- IC50 [3]: 91 nM

Compound: CC(C)Sc1ccc(OC(F)F)c(-c2nn(CC(=O)N3CCN(CCN4CCOCC4)CC3)cc2NC(=O)c2cnn3cccnc23)c1 [Example 109, N-[3-[2-(difluoromethoxy)-5-isopropylsulfanyl-phenyl]-1-[2-[4-(2-morpholinoethyl)piperazin-1-yl]-2-oxo-ethyl]pyrazol-4-yl]pyrazolo[1,5-a]pyrimidine-3-carboxamide]
- Ki [1]: 0.78 nM
- Ki [2]: 0.41 nM
- IC50 [3]: 33 nM

Compound: CSc1ccc(OC(F)F)c(-c2nn(CC(=O)N3CCC(CN4CCC[C@H]4C(=O)N(C)C)CC3)cc2NC(=O)c2cnn3cccnc23)c1 [Example 43, N-[3-[2-(difluoromethoxy)-5-methylsulfanyl-phenyl]-1-[2-[4-[[(2S)-2-(dimethylcarbamoyl)pyrrolidin-1-yl]methyl]-1-piperidyl]-2-oxo-ethyl]pyrazol-4-yl]pyrazolo[1,5-a]pyrimidine-3-carboxamide]
- Ki [1]: 0.87 nM
- Ki [2]: 0.35 nM
- IC50 [3]: 76 nM

Compound: CC(C)Sc1ccc(OC(F)F)c(-c2nn(CC(=O)N3CCN(CC4(C)COC4)CC3)cc2NC(=O)c2cnn3cccnc23)c1 [Example 127, N-[3-[2-(difluoromethoxy)-5-isopropylsulfanyl-phenyl]-1-[2-[4-[(3-methyloxetan-3-yl)methyl]piperazin-1-yl]-2-oxo-ethyl]pyrazol-4-yl]pyrazolo[1,5-a]pyrimidine-3-carboxamide]
- Ki [1]: 0.97 nM
- Ki [2]: 0.48 nM
- IC50 [3]: 35 nM

Compound: O=C(Nc1cn(CC(=O)N2CCC(CN3CCOCC3)CC2)nc1-c1cc(SC2CC2)ccc1OC(F)F)c1cnn2cccnc12 [Example 162, N-[3-[5-cyclopropylsulfanyl-2-(difluoromethoxy)phenyl]-1-[2-[4-(morpholinomethyl)-1-piperidyl]-2-oxo-ethyl]pyrazol-4-yl]pyrazolo[1,5-a]pyrimidine-3-carboxamide]
- Ki [1]: 0.98 nM
- Ki [2]: 0.42 nM
- IC50 [3]: 15 nM

Compound: CSc1ccc(OC(F)F)c(-c2nn(CC(=O)N3CCN(C4CCOC4)CC3)cc2NC(=O)c2cnn3cccnc23)c1 (stereo not drawn) [Example 54, N-[3-[2-(difluoromethoxy)-5-methylsulfanyl-phenyl]-1-[2-oxo-2-(4-tetrahydrofuran-3-ylpiperazin-1-yl)ethyl]pyrazol-4-yl]pyrazolo[1,5-a]pyrimidine-3-carboxamide]
- Ki [1]: 0.31 nM
- Ki [2]: 0.23 nM
- IC50 [3]: 12 nM

Compound: O=C(Nc1cn(CCN[C@@H]2CCOC2)nc1-c1cc(SC2COC2)ccc1OC(F)F)c1cnn2cccnc12 [Example 177, N-[3-[2-(difluoromethoxy)-5-(oxetan-3-ylsulfanyl)phenyl]-1-[2-[[(3R)-tetrahydrofuran-3-yl]amino]ethyl]pyrazol-4-yl]pyrazolo[1,5-a]pyrimidine-3-carboxamide]
- Ki [1]: 0.48 nM
- Ki [2]: 0.81 nM
- IC50 [3]: 18 nM

Compound: CSc1ccc(OC(F)F)c(-c2nn(CC(=O)N3CCC(CN4CCN(CC(=O)N(C)C)CC4)CC3)cc2NC(=O)c2cnn3cccnc23)c1 [Example 25, N-(3-(2-(difluoromethoxy)-5-(methylthio)phenyl)-1-(2-(4-((4-(2-(dimethylamino)-2-oxoethyl)piperazin-1-yl)methyl)piperidin-1-yl)-2-oxoethyl)-1H-pyrazol-4-yl)pyrazolo[1,5-a]pyrimidine-3-carboxamide]
- Ki [1]: 0.51 nM
- Ki [2]: 0.31 nM
- IC50 [3]: 18 nM

Compound: CC(C)Sc1ccc(OC(F)F)c(-c2nn(CC(=O)N3CCN(CCO)CC3)cc2NC(=O)c2cnn3cccnc23)c1 [Example 131, N-[3-[2-(difluoromethoxy)-5-isopropylsulfanyl-phenyl]-1-[2-[4-(2-hydroxyethyl)piperazin-1-yl]-2-oxo-ethyl]pyrazol-4-yl]pyrazolo[1,5-a]pyrimidine-3-carboxamide]
- Ki [1]: 0.8 nM
- Ki [2]: 0.41 nM
- IC50 [3]: 30 nM

Compound: CSc1ccc(OC(F)F)c(-c2nn(CC(=O)N3C[C@@H]4CCN[C@@H]4C3)cc2NC(=O)c2cnn3cccnc23)c1 [Example 56, N-[1-[2-[(3aS,6aS)-2,3,3a,4,6,6a-hexahydro-1H-pyrrolo[2,3-c]pyrrol-5-yl]-2-oxo-ethyl]-3-[2-(difluoromethoxy)-5-methylsulfanyl-phenyl]pyrazol-4-yl]pyrazolo[1,5-a]pyrimidine-3-carboxamide]
- Ki [1]: 0.48 nM
- Ki [2]: 0.41 nM
- IC50 [3]: 84 nM

Compound: CN1CCN(C2CCN(C(=O)Cn3cc(NC(=O)c4cnn5cccnc45)c(-c4cc(SC5COC5)ccc4OC(F)F)n3)CC2)CC1 [Example 190, N-[3-[2-(difluoromethoxy)-5-(oxetan-3-ylsulfanyl)phenyl]-1-[2-[4-(4-methylpiperazin-1-yl)-1-piperidyl]-2-oxo-ethyl]pyrazol-4-yl]pyrazolo[1,5-a]pyrimidine-3-carboxamide]
- Ki [1]: 3.8 nM
- Ki [2]: 1.1 nM
- IC50 [3]: 170 nM

Compound: CC(C)Sc1ccc(OC(F)F)c(-c2nn(CC(=O)N3CCC(N4CCN(C)C(=O)C4)CC3)cc2NC(=O)c2cnn3cccnc23)c1 [Example 106, N-[3-[2-(difluoromethoxy)-5-isopropylsulfanyl-phenyl]-1-[2-[4-(4-methyl-3-oxo-piperazin-1-yl)-1-piperidyl]-2-oxo-ethyl]pyrazol-4-yl]pyrazolo[1,5-a]pyrimidine-3-carboxamide]
- Ki [1]: 0.79 nM
- Ki [2]: 0.4 nM
- IC50 [3]: 110 nM

Compound: CSc1ccc(OC(F)F)c(-c2nn(CC(=O)N3CCC(CN4CCN(CC(=O)N(C)C)C[C@H]4C)CC3)cc2NC(=O)c2cnn3cccnc23)c1 [Example 87, N-[3-[2-(difluoromethoxy)-5-methylsulfanyl-phenyl]-1-[2-[4-[[(2R)-4-[2-(dimethylamino)-2-oxo-ethyl]-2-methyl-piperazin-1-yl]methyl]-1-piperidyl]-2-oxo-ethyl]pyrazol-4-yl]pyrazolo[1,5-a]pyrimidine-3-carboxamide]
- Ki [1]: 0.61 nM
- Ki [2]: 0.39 nM
- IC50 [3]: 35 nM

Compound: CC(C)Sc1ccc(OC(F)F)c(-c2nn(CC(=O)N3CCN(CCCC#N)CC3)cc2NC(=O)c2cnn3cccnc23)c1 [Example 103, N-[1-[2-[4-(3-cyanopropyl)piperazin-1-yl]-2-oxo-ethyl]-3-[2-(difluoromethoxy)-5-isopropylsulfanyl-phenyl]pyrazol-4-yl]pyrazolo[1,5-a]pyrimidine-3-carboxamide]
- Ki [1]: 0.75 nM
- Ki [2]: 0.33 nM
- IC50 [3]: 41 nM

Compound: CSc1ccc(OC(F)F)c(-c2nn(CC(=O)N3CC4CCCN(C)C4C3)cc2NC(=O)c2cnn3cccnc23)c1 (stereo not drawn) [Example 39, N-[3-[2-(difluoromethoxy)-5-methylsulfanyl-phenyl]-1-[2-(1-methyl-3,4,4a,5,7,7a-hexahydro-2H-pyrrolo[3,4-b]pyridin-6-yl)-2-oxo-ethyl]pyrazol-4-yl]pyrazolo[1,5-a]pyrimidine-3-carboxamide]
- Ki [1]: 0.33 nM
- Ki [2]: 0.3 nM
- IC50 [3]: 19 nM

Compound: CC(C)Sc1ccc(OC(F)F)c(-c2n[nH]cc2NC(=O)c2cnn3cccnc23)c1 [Example 101, N-[3-[2-(difluoromethoxy)-5-(propan-2-ylsulfanyl)phenyl]-1H-pyrazol-4-yl]pyrazolo[1,5-a]pyrimidine-3-carboxamide]
- Ki [1]: 0.093 nM
- Ki [2]: 0.2 nM
- IC50 [3]: 3.7 nM

Compound: CC(C)Sc1ccc(OC(F)F)c(-c2nn(CC(=O)N3CC4CCCNC4C3)cc2NC(=O)c2cnn3cccnc23)c1 (stereo not drawn) [Example 124, N-[1-[2-(1,2,3,4,4a,5,7,7a-octahydropyrrolo[3,4-b]pyridin-6-yl)-2-oxo-ethyl]-3-[2-(difluoromethoxy)-5-isopropylsulfanyl-phenyl]pyrazol-4-yl]pyrazolo[1,5-a]pyrimidine-3-carboxamide]
- Ki [1]: 1.1 nM
- Ki [2]: 0.92 nM
- IC50 [3]: 59 nM

Compound: CC(C)Sc1ccc(OC(F)F)c(-c2nn(CC(=O)N3CCC(N(C)CC4OCCO4)CC3)cc2NC(=O)c2cnn3cccnc23)c1 [Example 123, N-[3-[2-(difluoromethoxy)-5-isopropylsulfanyl-phenyl]-1-[2-[4-[1,3-dioxolan-2-ylmethyl(methyl)amino]-1-piperidyl]-2-oxo-ethyl]pyrazol-4-yl]pyrazolo[1,5-a]pyrimidine-3-carboxamide]
- Ki [1]: 2 nM
- Ki [2]: 0.79 nM
- IC50 [3]: 38 nM

Compound: CSc1ccc(OC(F)F)c(-c2nn(CC(=O)N3CCN(CC4CCN(CC(=O)N5CCOCC5)CC4)CC3)cc2NC(=O)c2cnn3cccnc23)c1 [Example 93, N-[3-[2-(difluoromethoxy)-5-methylsulfanyl-phenyl]-1-[2-[4-[[1-(2-morpholino-2-oxo-ethyl)-4-piperidyl]methyl]piperazin-1-yl]-2-oxo-ethyl]pyrazol-4-yl]pyrazolo[1,5-a]pyrimidine-3-carboxamide]
- Ki [1]: 0.71 nM
- Ki [2]: 0.44 nM
- IC50 [3]: 26 nM

Compound: CC(F)(F)CNC1CCN(C(=O)Cn2cc(NC(=O)c3cnn4cccnc34)c(-c3cc(SC4COC4)ccc3OC(F)F)n2)CC1 [Example 185, N-[3-[2-(difluoromethoxy)-5-(oxetan-3-ylsulfanyl)phenyl]-1-[2-[4-(2,2-difluoropropylamino)-1-piperidyl]-2-oxo-ethyl]pyrazol-4-yl]pyrazolo[1,5-a]pyrimidine-3-carboxamide]
- Ki [1]: 1.7 nM
- Ki [2]: 0.71 nM
- IC50 [3]: 47 nM
